{"source": "paper PMC4251666", "about": "(ACS chemical biology, 2012)", "tested_on": "cytosolic cysteine proteases", "assay": "Calpain activity assay in isolated renal cytosol", "type": "biochemical, New Zealand White rabbits", "conditions": "10 μM, 50 μM SLLVY-AMC"}
{"smiles": "CCCC[C@@H](C=O)NC(=O)[C@H](CC(C)C)NC(=O)OCc1ccccc1", "note": "[Calpeptin]", "values": [{"measurement": "inhibition of activity in isolated cytosol", "result": "~ 50%"}]}
